Our source for the Ki values is ChEMBL document CHEMBL1135016, “Inhibition of amine oxidases activity by 1-acetyl-3,5-diphenyl-4,5-dihydro-(1H)-pyrazole derivatives” (Bioorg Med Chem Lett, 2002).

Assay [1] deals with T1, Monoamine oxidase (Bos taurus, UniProt P56560+P21398).
T1 sequence (P56560 whole entry): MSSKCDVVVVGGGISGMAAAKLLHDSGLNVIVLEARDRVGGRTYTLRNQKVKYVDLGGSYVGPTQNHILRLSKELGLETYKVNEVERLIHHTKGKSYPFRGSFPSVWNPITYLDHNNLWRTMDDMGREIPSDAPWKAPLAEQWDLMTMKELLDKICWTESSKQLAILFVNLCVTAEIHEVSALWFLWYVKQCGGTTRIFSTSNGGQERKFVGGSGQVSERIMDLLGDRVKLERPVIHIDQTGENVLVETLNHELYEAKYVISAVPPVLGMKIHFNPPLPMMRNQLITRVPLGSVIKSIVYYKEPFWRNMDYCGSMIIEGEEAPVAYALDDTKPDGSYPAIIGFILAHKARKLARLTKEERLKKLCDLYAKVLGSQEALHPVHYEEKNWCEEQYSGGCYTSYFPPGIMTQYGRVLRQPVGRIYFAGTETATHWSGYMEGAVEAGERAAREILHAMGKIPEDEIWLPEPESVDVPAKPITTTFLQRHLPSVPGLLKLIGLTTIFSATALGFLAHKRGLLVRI
T1 sequence (P21398 whole entry): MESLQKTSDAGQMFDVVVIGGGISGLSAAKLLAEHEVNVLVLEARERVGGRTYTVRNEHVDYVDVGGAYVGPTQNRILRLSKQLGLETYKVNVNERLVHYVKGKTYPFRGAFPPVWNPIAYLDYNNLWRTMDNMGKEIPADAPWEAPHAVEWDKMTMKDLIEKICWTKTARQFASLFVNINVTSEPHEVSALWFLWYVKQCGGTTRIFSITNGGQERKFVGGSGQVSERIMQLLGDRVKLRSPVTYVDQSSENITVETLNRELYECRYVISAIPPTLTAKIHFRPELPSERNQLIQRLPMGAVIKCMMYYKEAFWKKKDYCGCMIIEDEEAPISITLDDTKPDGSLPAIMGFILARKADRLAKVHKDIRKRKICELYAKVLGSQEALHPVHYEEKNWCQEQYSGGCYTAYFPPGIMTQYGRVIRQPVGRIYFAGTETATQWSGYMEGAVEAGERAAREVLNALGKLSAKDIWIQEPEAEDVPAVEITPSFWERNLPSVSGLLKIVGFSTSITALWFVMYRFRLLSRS
Description: Inhibitory activity against Monoamine oxidase from Bovine brain mitochondria.

The nature of assay [2]: Inhibitory activity against Serum amine oxidase; No inhibition, corresponding to value >10e-4.
Assay [3] is described as follows: Inhibitory activity against Swine kidney diamine oxidase (SKDAO); No inhibition, corresponding to value >10e-4.
Assay [4] in a line: Inhibitory activity against Serum amine oxidase.
Assay [5] deals with T2, Amine oxidase [flavin-containing] A (Bos taurus, UniProt P21398).
T2 sequence (P21398 whole entry): T1 sequence (P21398 whole entry)
Description: Inhibiting activity of the compound was determined against bovine Monoamine oxidase A.

In assay [6] the target is T3, Amine oxidase [flavin-containing] B (Homo sapiens, UniProt P27338).
T3 sequence (P27338 whole entry): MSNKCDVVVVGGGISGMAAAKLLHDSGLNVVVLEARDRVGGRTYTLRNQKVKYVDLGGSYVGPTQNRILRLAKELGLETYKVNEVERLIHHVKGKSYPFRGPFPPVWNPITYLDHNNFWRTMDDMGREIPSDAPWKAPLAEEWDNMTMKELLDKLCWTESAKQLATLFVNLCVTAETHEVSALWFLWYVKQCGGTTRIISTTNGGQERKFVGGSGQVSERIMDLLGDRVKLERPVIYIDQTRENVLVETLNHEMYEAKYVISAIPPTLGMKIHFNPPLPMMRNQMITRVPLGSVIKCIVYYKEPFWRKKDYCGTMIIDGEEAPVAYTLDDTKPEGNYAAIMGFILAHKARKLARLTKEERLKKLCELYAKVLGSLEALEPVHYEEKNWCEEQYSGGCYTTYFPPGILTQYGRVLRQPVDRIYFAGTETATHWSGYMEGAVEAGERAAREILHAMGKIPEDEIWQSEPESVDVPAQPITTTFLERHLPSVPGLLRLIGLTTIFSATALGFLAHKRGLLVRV
Description: Inhibiting activity of the compound was determined against human Monoamine oxidase B.

For the compound `CC(=O)N1N=C(c2ccccc2)CC1c1ccc(Cl)cc1` (stereo unspecified), the results for the Ki in assay [1], in assay [2] and in assay [3] were 6000 nM, “No inhibition” and “No inhibition”, respectively.
Consider `CC(=O)N1N=C(c2ccccc2O)CC1c1ccccc1C` (stereo unspecified), for which the values for the Ki in assay [1] and in assay [4] were 300000 nM and 57000 nM, respectively.
Turning to `CC(=O)N1N=C(c2ccc(O)cc2O)CC1c1ccccc1C` (stereo unspecified), the inhibitory constant (Ki) in assay [5] stood at 52 nM; in assay [1], 80 nM; in assay [6] it was 30 nM.
In the case of `CC(=O)N1N=C(c2ccccc2O)CC1c1cccc(C)c1` (stereo unspecified), the Ki in assay [1] came out at 5500 nM.
With `CC(=O)N1N=C(c2ccccc2)CC1c1cccc(C)c1` (stereo unspecified), the Ki was 200000 nM in assay [1], “No inhibition” in assay [2] and “No inhibition” in assay [3].
On to `CC(=O)N1N=C(c2ccc(O)cc2O)CC1c1cccc(C)c1` (stereo unspecified), for which the Ki in assay [5] was 13 nM; in assay [1] it was 50 nM; in assay [6] it was 38 nM; in assay [4] it was 10000 nM.
